Consider 15 compounds from US20220313700A1, “METHODS FOR TREATING MAP3K8 POSITIVE CANCERS” (CELL RESPONSE, INC., priority 2019, published 2022).

Where two headings read alike, the source gives them in different places.

For orientation: IC50 means the midpoint of a concentration-inhibition curve.

One experiment concerns H23 NSCLC cell line. The experiment is described as follows: Alamar blue proliferation assay, H23. The class given is cell-based. To be noted: H23, 72 hours, vs no drug. As to the method:
(§1) The experiments have been performed in the following way. Three thousand cells in suspension in the medium normally used to grow these particular cells have been placed in an individual well within a 96 well tissue culture plate. Following cell attachment, the drugs have added to the wells to achieve the final indicated concentration. Subsequently, the cells were incubated for 72 hours in a standard tissue culture incubator at 37 degrees Celsius in an atmosphere containing 5% CO2. Following 66 hours, Alamar blue was added to the cells. Six hours later (72 hours from the addition of drug) the 96 well plate was placed in a fluorescence plate reader to measure for Alamar blue fluorescence (excitation wavelength of 540-570 nm (peak excitation is 560 nm)). Fluorescence emission was read at 580-610 nm (peak emission is 590 nm). This enabled the determination of the number of live cells present in each well. Wells containing each drug were compared to control wells where no drug was added. In each experiment, each condition was performed in multiple technical repeats of between four and eight times, by using between four and eight wells that were treated identically Each and every experiment was repeated at least three times on different days. In the data shown here, a representative example of each experiment is shown.

Another experiment has as its system H358 NSCLC cell line. Put plainly: Alamar blue proliferation assay, H358. It is filed as cell-based. Conditions: H358, 72 hours, vs no drug. As to the method: as §1
For orientation: Resazurin is reduced to fluorescent resorufin, in cell work by metabolically active cells.

A further experiment deals with H1975 NSCLC cell line. The experiment is described as follows: Alamar blue proliferation assay, H1975. It is filed as cell-based. To be noted: H1975, 72 hours, vs no drug, FIG. 14, 16, 17. The method, then: as §1
In another experiment the test system is HCT15 CRC cell line. Put plainly: Alamar blue proliferation assay, HCT15. The class given is cell-based. Conditions: HCT15, 72 hours; for inhibitory effect on proliferation (in words): FIG. 7, FIG. 9, FIG. 19, FIG. 20; for inhibition of proliferation: vs no drug, FIG. 8, FIG. 9. As to the method:
as §1, with “Following cell attachment, the drugs have added to the wells to achieve the final indicated concentration.” left out, “days.” for “days. In the data shown here, a representative example of each experiment is shown.”

The next experiment deals with 11-18 NSCLC cell line. Put plainly: Alamar blue proliferation assay, 11-18. The class given is cell-based. To be noted: 11-18, 72 hours, FIG. 14, FIG. 17. The method, then: as §1
Experiment [1] concerns LOVO colorectal cell line. Put plainly: Alamar blue proliferation assay, LOVO. Conditions: 72 hours, FIG. 7, FIG. 10. The class given is cell-based. The method, then: as §1, with “Following cell attachment, the drugs have added to the wells to achieve the final indicated concentration.” left out, “days.” for “days. In the data shown here, a representative example of each experiment is shown.”

A further experiment deals with A549 NSCLC cell line. Put plainly: Alamar blue proliferation assay, A549. The class given is cell-based. Conditions: A549, 72 hours. The method, then: as §1
Another experiment has as its system DLD1 CRC cell line. Put plainly: Alamar blue proliferation assay, DLD1. The class given is cell-based. Conditions: DLD1, 72 hours; for inhibitory effect on proliferation (in words): FIG. 7, FIG. 9, FIG. 20. As to the method:
as §1, with “Following cell attachment, the drugs have added to the wells to achieve the final indicated concentration.” left out, “days.” for “days. In the data shown here, a representative example of each experiment is shown.”

The subject of experiment [2] is IKKβ, JNK1α, p38, EGFR, CK1α, CDK2, JAK3, MST4, GSK3β. To be noted: cited from earlier work.
For a further experiment, the target named is COT (Homo sapiens, UniProt P41279). To be noted: cited from earlier work.
In the next experiment the test system is ERK phosphorylation. To be noted: cited from earlier work.
Another experiment has as its system intact blood cells. To be noted: cited from earlier work.
In experiment [3] the test system is four other related kinases. To be noted: cited from earlier work.
In a further experiment the test system is CRC cell line HT29. Put plainly: Alamar blue proliferation assay, HT29. Conditions: HT29, 72 hours, monotherapy, FIG. 13. The class given is cell-based. The method, then:
as §1

Experiment [4] relates to NSCLC patients with EGFR mutations. Conditions: cited from earlier work.
A further experiment has as its system NSCLC H1975 cell line. The experiment is described as follows: siRNA knockdown proliferation assay, H1975. It is filed as cell-based. To be noted: H1975, 200 nM, FIG. 21B. The method, then: as §1, with “Following cell attachment, the drugs have added to the wells to achieve the final indicated concentration.” left out, “days.” for “days. In the data shown here, a representative example of each experiment is shown.”

Experiment [5] concerns BxPC3 pancreatic cancer cell line. The experiment is described as follows: Alamar blue proliferation assay, BxPC3. The class given is cell-based. Conditions: BxPC3, 72 hours, vs no drug. As to the method: as §1
Experiment [6] concerns HPAFII pancreatic cancer cell line. Put plainly: Alamar blue proliferation assay, HPAFII. It is filed as cell-based. Conditions: 72 hours, vs no drug. As to the method:
as §1

Experiment [7] deals with metastatic ROS1 positive non-small cell lung cancer (NSCLC) patients. To be noted: cited from earlier work.
In the next experiment the test system is STE1 NSCLC cell line. Put plainly: Alamar blue proliferation assay, STE1. Conditions: STE1, 72 hours, FIG. 18. It is filed as cell-based. As to the method:
as §1

Chain of COT (P41279 whole entry): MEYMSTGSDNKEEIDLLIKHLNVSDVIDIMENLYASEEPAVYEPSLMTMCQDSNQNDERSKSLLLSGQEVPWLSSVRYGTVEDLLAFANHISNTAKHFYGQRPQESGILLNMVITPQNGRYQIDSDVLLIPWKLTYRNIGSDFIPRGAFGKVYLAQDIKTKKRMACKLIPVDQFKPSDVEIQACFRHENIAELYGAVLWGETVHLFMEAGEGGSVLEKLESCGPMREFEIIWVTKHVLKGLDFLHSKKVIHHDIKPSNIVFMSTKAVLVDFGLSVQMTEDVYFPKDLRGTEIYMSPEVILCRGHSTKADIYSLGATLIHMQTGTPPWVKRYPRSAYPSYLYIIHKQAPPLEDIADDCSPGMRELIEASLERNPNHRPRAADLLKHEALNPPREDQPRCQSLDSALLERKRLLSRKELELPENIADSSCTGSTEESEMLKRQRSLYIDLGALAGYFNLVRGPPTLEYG

Take `C=CC(=O)N1CCN(c2nc(=O)n(-c3c(C)ccnc3C(C)C)c3nc(-c4c(O)cccc4F)c(F)cc23)[C@@H](C)C1` [AMG510, 6-fluoro-7-(2-fluoro-6-hydroxyphenyl)-1-[4-methyl-2-(propan-2-yl)pyridin-3-yl]-4-[(2S)-2-methyl-4-(prop-2-enoyl)piperazin-1-yl]-1H,2H-pyrido[2,3-d]pyrimidin-2-one]: the inhibition of proliferation is on record as 50% in the experiment with H23 NSCLC cell line and 30% in the experiment on H358 NSCLC cell line.
As for `CCN1CCC(n2cc(CNc3cc(Cl)c4ncc(C#N)c(Nc5ccc(F)c(Cl)c5)c4c3)nn2)CC1` [COT inhibitor, 3-Quinolinecarbonitrile, 8-chloro-4-[(3-chloro-4-fluorophenyl)amino]-6-[[[1-(1-ethyl-4-piperidinyl)-1H-1,2,3-triazol-4-yl]methyl]amino]-3-quinolinecarbonitrile], the inhibition of proliferation in the experiment with H1975 NSCLC cell line is listed as 20%; in the experiment with H23 NSCLC cell line, “about 30%”; in the experiment with HCT15 CRC cell line, 30%; in the experiment on H358 NSCLC cell line it was “about 30%”. Moreover, the “inhibitory effect on proliferation (in words)” value in the experiment with HCT15 CRC cell line was “variable, but significant, inhibitory effect”; in the experiment with 11-18 NSCLC cell line, “higher level of inhibition”; in experiment [1] it was “variable, but significant, inhibitory effect”; in the experiment with A549 NSCLC cell line (FIG. 5, FIG. 6), “no effect”; in the experiment with DLD1 CRC cell line, “variable, but significant, inhibitory effect”.
In the case of `c1ccc2[nH]c(-c3n[nH]c4ccccc34)nc2c1` [FIG. 2A without methyl group], in experiment [2], the “kinase selectivity against CDK2, JAK3, MST4, GSK3β” value is recorded as “less selectivity” and the “kinase selectivity against IKKβ, JNK1α, p38, EGFR, CK1α” value is recorded as “good kinase selectivity”. For the same compound, the IC50 at COT (Hu et al. 2011, indazoles with benzimidazole ring, read-out: COT (TPL2) IC50) was 109 nM.
`Cc1c(CNCCO)cncc1-c1ccc2[nH]nc(-c3nc4ccccc4[nH]3)c2c1` [FIG. 2B]: in the experiment on ERK phosphorylation, the “inhibition of ERK phosphorylation” value is given as “inhibits ERK phosphorylation”.
For the compound `NC(=O)c1cc2c(-c3cccc(-c4ccccc4)c3)cnc(N)c2s1` [FIG. 3B], in the experiment on intact blood cells, the “activity when added to intact blood cells” value is on record as “active”. Besides, the IC50 on COT (thieno[2,3-c]pyridines, George et al. 2008, Cusack et al. 2009, read-out: COT IC50) is 170 nM. Further, the “inhibition of four other related kinases relative to COT” value in experiment [3] is given as “at least ten-fold less effective”.
`CN(C)C1CCN(C(=O)c2ccc(NC(=O)Nc3ccc(-c4nc(N5CCOCC5)nc(N5CCOCC5)n4)cc3)cc2)CC1` [Gedatolisib]: the entries for the “inhibitory effect on proliferation (in words)” value in the experiment with HCT15 CRC cell line, in the experiment with CRC cell line HT29 and in the experiment with DLD1 CRC cell line were “little to no inhibition”, “significant inhibitory effect” and “little to no inhibition”, respectively.
Regarding `C=CC(=O)Nc1cc(Nc2nccc(-c3cn(C)c4ccccc34)n2)c(OC)cc1N(C)CCN(C)C` [Osimertinib], in experiment [4] (osimertinib, or erlotinib/gefitinib/afatinib followed by osimertinib), the “progression-free survival, average” value is listed as 18 months. For the same compound, in experiment [4] (patients relapsed after first or second line EGFR inhibitors), the patients who respond result is listed as “Fifty percent”. Moreover, the “reduction of relative cell number” value in the experiment with NSCLC H1975 cell line is given as about 50%.
As to `CC(C)Nc1cc(-c2c[nH]c(C(=O)N[C@H](CO)c3cccc(Cl)c3)c2)c(Cl)cn1` [Ulixertinib], the inhibition of proliferation in the experiment with HCT15 CRC cell line is on record as 20%; in [5] it was 32%; with A549 NSCLC cell line (vs no drug, FIG. 6), 10%; in [6], 15%; in the experiment on DLD1 CRC cell line (vs no drug, FIG. 8, FIG. 9), “approximately 20%”.
For the compound `CN(C)C/C=C/C(=O)Nc1cc2c(Nc3ccc(F)c(Cl)c3)ncnc2cc1O[C@H]1CCOC1` [afatinib], the inhibition of proliferation with H1975 NSCLC cell line was found to be 35%.
With `CCc1cc2c(cc1N1CCC(N3CCOCC3)CC1)C(C)(C)c1[nH]c3cc(C#N)ccc3c1C2=O` [alectinib], the “clinical benefit in ROS1 positive patients” value in [7] (in vivo) was “do not possess clinical benefit”.
Turning to `C[C@@H](Oc1cc(-c2cnn(C3CCNCC3)c2)cnc1N)c1c(Cl)ccc(F)c1Cl` [crizotinib], the “patients in whom treatment was initially effective” value in [7] (clinical trials) is reported as 70-80%.
For the compound `CN1CCN(c2ccc(C(=O)Nc3n[nH]c4ccc(Cc5cc(F)cc(F)c5)cc34)c(NC3CCOCC3)c2)CC1` [entrectinib], in experiment [7] (in vivo), the duration of response was 28.6 months and the “objective response rate (ORR)” value is given as 78%.
Turning to `COc1cc2c(Oc3ccc(NC(=O)C4(C(=O)Nc5ccc(F)cc5)CC4)cc3F)ccnc2cc1OCCCN1CCOCC1` [foretinib], in experiment [7] (in vivo), the “clinical benefit in ROS1 positive patients” value is reported as “do not possess clinical benefit”.
`C[C@H]1Oc2cc(cnc2N)-c2c(nn(C)c2C#N)CN(C)C(=O)c2ccc(F)cc21` [loraltinib]: the inhibition of proliferation in the experiment with STE1 NSCLC cell line is on record as 81%.
Turning to `COc1cc2c(Nc3ccc(Br)cc3F)ncnc2cc1OCC1CCN(C)CC1` [vandetanib], the inhibition of proliferation in the experiment with H1975 NSCLC cell line is on record as 20%.
